Reference: PMC5378566, “Design, synthesis and evaluation in an LPS rodent model of neuroinflammation of a novel ^18F-labelled PET tracer targeting P2X7” (EJNMMI Research, 2017)

Tests used:
[1] = molecular target: T1, mouse P2X7 (Mus musculus, UniProt Q9Z1M0); design: method as in PMID 11181928; details: YoPro dye uptake, P2X7-HEK293; cited from earlier work
T1 sequence (Q9Z1M0 1-595): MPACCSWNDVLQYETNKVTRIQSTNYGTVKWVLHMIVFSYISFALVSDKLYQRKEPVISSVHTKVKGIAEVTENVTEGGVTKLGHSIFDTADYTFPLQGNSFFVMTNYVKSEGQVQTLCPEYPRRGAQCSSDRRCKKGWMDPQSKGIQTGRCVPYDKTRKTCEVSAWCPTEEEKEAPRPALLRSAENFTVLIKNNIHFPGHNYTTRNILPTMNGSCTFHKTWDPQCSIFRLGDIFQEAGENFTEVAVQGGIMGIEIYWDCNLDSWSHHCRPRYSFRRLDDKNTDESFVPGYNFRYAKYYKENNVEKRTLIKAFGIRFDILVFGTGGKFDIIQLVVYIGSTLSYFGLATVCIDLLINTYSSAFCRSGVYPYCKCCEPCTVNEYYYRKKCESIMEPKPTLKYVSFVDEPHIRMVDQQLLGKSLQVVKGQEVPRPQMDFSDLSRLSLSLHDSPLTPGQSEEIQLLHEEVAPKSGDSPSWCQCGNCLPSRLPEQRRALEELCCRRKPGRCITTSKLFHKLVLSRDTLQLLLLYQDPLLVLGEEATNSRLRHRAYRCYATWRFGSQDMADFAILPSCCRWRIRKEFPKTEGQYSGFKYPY

[2] = molecular target: T2, human P2X7 (Homo sapiens, UniProt Q99572); design: method as in PMID 11181928; details: YoPro dye uptake, P2X7-HEK293; cited from earlier work
T2 construct: expressed in transfected cells
T2 sequence (Q99572 1-595): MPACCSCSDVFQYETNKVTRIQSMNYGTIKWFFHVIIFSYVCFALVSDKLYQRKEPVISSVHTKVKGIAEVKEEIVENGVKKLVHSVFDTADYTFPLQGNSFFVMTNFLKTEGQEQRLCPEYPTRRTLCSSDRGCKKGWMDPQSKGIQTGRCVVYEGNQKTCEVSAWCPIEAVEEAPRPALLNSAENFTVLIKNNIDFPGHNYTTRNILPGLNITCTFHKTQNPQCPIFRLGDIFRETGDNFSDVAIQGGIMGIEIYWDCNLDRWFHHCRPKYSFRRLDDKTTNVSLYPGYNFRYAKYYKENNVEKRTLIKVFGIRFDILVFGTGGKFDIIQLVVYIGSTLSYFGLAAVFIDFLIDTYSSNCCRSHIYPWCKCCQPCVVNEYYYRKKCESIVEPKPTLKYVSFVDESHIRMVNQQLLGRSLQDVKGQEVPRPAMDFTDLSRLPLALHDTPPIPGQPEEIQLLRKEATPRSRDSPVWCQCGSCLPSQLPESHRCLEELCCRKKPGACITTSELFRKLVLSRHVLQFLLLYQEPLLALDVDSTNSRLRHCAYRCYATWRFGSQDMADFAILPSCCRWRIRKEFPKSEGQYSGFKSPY

[3] = molecular target: T3, rat P2X7 (Rattus norvegicus, UniProt Q64663); design: method as in PMID 11181928; details: YoPro dye uptake, P2X7-HEK293; cited from earlier work
T3 construct: expressed in transfected cells
T3 sequence (Q64663 1-595): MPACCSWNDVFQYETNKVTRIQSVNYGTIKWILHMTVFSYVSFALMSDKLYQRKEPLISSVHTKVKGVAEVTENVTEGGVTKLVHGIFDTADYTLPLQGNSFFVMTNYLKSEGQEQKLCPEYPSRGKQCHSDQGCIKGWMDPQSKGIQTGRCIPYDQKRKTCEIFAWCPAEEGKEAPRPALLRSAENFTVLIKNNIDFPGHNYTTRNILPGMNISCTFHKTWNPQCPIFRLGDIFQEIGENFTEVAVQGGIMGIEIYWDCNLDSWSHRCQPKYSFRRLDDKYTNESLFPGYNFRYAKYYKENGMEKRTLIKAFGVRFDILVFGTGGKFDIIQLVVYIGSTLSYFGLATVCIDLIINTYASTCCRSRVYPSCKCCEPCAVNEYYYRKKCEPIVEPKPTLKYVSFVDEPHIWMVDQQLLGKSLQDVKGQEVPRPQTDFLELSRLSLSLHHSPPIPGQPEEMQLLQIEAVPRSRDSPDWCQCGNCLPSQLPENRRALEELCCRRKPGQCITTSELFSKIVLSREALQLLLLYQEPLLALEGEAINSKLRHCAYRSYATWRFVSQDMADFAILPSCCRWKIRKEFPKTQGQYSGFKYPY

[4] = molecular target: T1, mouse P2X7; design: method as in PMID 19558545; details: Mouse isoform, literature value from similar assay format; cited from earlier work
[5] = molecular target: T2, human P2X7; assay: Calcium influx (Fura-2/AM) inhibition assay, BzATP-activated; type: cell-based; details: Human isoform
[6] = molecular target: T1, mouse P2X7; assay: Calcium influx (Fura-2/AM) inhibition assay, BzATP-activated, B16 cells; type: cell-based; details: Mouse isoform; for pKi: Cheng–Prusoff; for Ki: Cheng–Prusoff from pIC50 assuming competitive inhibition, BzATP 200 μM; for pIC50: P2X7-B16, [BzATP] 200 μM
[7] = molecular target: T3, rat P2X7; assay: Calcium influx (Fura-2/AM) inhibition assay, BzATP-activated; type: cell-based; details: Rat isoform
[8] = test system: Sprague–Dawley rats; assay: PET/CT imaging and biodistribution in LPS-treated and control rats; type: in vivo, rat
Description: Male Sprague–Dawley rats of 240–270 g were bought from Charles River Laboratories International, Inc., and used within 90 days. The animals were housed with a week of acclimatisation before procedures were done under pathogen-free conditions in a temperature- and humidity-controlled environment and given access to food and water ad libitum. All experiments were carried out in the Rayne Institute, St. Thomas’ Hospital, King’s College London, between 2015 and 2016 and according to the Animals Act 1986 and with the approval of the King’s College research ethics committee.
Twenty-four hours prior to scanning, all rats were pre-treated by an intraperitoneal injection of 0.5 mg/kg LPS from Escherichia coli (0111:B4 L2630, Sigma Aldrich) at 0.5 mg/mL or with 1 mL/kg sterile saline solution and weighed before the start of the PET imaging procedure. Then, the saline-dissolved reformulated radiotracer was injected under isoflurane anaesthesia in 0.2–5 MBq, corresponding to an administered dose of 0.5–16 ng/kg, and >300 GBq/μmol molar radioactivity via tail vein cannulation, followed by a 0.15 mL saline flush. Details on anaesthesia and PET/CT acquisition and analysis are reported in Additional file 1. Immediately after imaging, the animals were culled by terminal anaesthesia and cervical dislocation and dissected. Organs and body fluids were collected for gamma counting (LKB Wallac 1282) and biodistribution analysis.
Data are expressed as mean ± standard error mean (SEM) from three independent replicates, unless otherwise indicated. Statistical analysis of the %ID/g variation in the PET scans and biodistributions were performed with GraphPad Prism 5.0 (San Diego, USA) as a parametric two-way ANOVA test with Bonferroni post-test, while the mean longitudinal percentage injected dose per gram (%ID/g) and the post-LPS treatment weight variation were analysed with a Student’s t test. The asterisk indicates P < 0.01; **P < 0.005; ***P < 0.001. Where unspecified, no significance was found.
PET/CT scans were acquired with Nuclide^TM within the energy window of 400-600 keV, coincidence detection ratio 1-5 and voxel resolution of 0.30 x 0.30 x 0.30 mm^3. CT scanning was performed immediately before or after the PET scans with X-ray energy of 45 KVp, 360 projection and 0.25 x 0.25 x 0.21 mm^3 voxel size. The datasets were resolved by dynamic fine reconstructions with coincidence detection ratio 1-5 and decay correction to the time of injection. Binning was performed in incremental time units of 5 to 30 min size. All reconstructed datasets were analysed with VivoQuant 1.21 (InviCRO, LLC, Boston, USA). ROI activity quantification was corrected for background noise. Uptake was expressed as percent injected dose per gram of tissue (%ID/g), as calculated with reference to the injected activity dose at the time of injection and the ROI size in mm^3. The blood ROI was sampled from the coronary artery. All data are presented as mean ± SEM unless otherwise stated.
Immediately after imaging, the animals were culled by terminal anaesthesia and cervical dislocation. The animals were dissected and organs and body fluids were collected for gamma counting (LKB Wallac 1282) and weighed. An ^18F counts-to-becquerel standard curve was made so as to enable conversion between the two units. The radiotracer uptake in each organ was expressed as %ID/g, where %ID was the percent ratio of the measured organ radioactivity to the total administered dose. The latter was defined as the MBq injected to the animals, decay corrected to the start of counting.

[9] = Stability test in 0.05% DMSO by radio/UV-HPLC; type: physicochemical; details: 37 °C, 2 h
Description: The reaction vessel was heated at 160 °C for 15 min, cooled to 50 °C and the solvent was concentrated at 50 °C under a stream of nitrogen for 7–10 min. Next, the crude mixture was diluted in 2 mL water ensuring <15% acetonitrile was present and injected in an HPLC semi-prep C18 column to provide isolation of the pure product in >99% RCP and >300 GBq/μmol molar radioactivity. The product was diluted to 30–50 mL in water and passed through a light C18 Short Sep-Pak SPE cartridge (WAT023501) for concentration in 200–500 μL ethanol. The resulting product was obtained in high purity and 4.0% overall RCY in 3 h and 30 min from start of synthesis. Purity tests were performed with HPLC method B (Table 1).
Supp. […] UV_A: UV chromatogram; ChA: Channel A (Radiochromatogram); Cps: counts per second.

2′(3′)-O-(4-Benzoylbenzoyl)adenosine 5′-triphosphate triethylammonium salt [BzATP]
pEC50 [1]: 4.7 ± 0.07
pEC50 [2]: 6.8 ± 0.14
pEC50 [3]: 6.3 ± 0.13

COc1ccc(CC(=O)NC(NC(=NC#N)Nc2cccc3ncccc23)C(C)(C)C)cc1OC (stereo not shown) [A-740003, N-(1-{[(Cyanoimino)(5-quinolinylamino)methyl]amino}-2,2-dimethylpropyl)-2-(3,4-dimethoxyphenyl)acetamide, reference compound]
Lit. pIC50 [4]: 6.57 [34]
Ki ([5]; Cheng–Prusoff): 0.105 nM
IC50 ([5]; P2X7-HEK293, [BzATP] 100 μM): 66.1 nM
pKi [6]: 7.01
Ki [6]: 97.2 nM
pIC50 [6]: 5.97

N#CN=C(NCc1ccc(F)cc1)Nc1cccc2ncccc12 [EFB, 2-cyano-1-(4-fluorobenzyl)-3-(quinolin-5-yl)guanidine]
Ki ([7]; Cheng–Prusoff from pIC50 assuming competitive inhibition, BzATP 100 μM): 36.1 nM
IC50 ([7]; P2X7-HEK293, [BzATP] 100 μM): 7240 nM
pKi [6]: 6.26
Ki [6]: 547 nM
pIC50 [6]: 5.22

N#C/N=C(/NCc1ccc([18F])cc1)Nc1cccc2ncccc12 [[^18F]EFB, 2-cyano-1-(4-[^18F]fluorobenzyl)-3-(quinolin-5-yl)guanidine]
blood concentration of the tracer, LPS vs control ([8]; 90 min biodistribution): substantially unvaried
tracer uptake in upper digestive organs (stomach, pancreas), LPS vs control ([8]; 90 min biodistribution): increased, albeit non-significant
CNS uptake, spinal cord ([8]; PET, rats, i.v.): 0.05–0.1 %ID/g
CNS uptake, whole brain, cortex, olfactory bulb, cerebellum and basal ganglia ([8]; PET, rats, i.v.): 0.02–0.07 %ID/g
blood concentration (longitudinal uptake profile) ([8]; PET, rats, i.v., blood ROI): 0.05–0.1 %ID/g
brain uptake (visual PET image assessment) ([8]; control and 0.5 mg/kg LPS-pre-treated rats): low brain uptake
removal of the radioactivity (excretion route) ([8]; rats): predominantly via the urinary route
Stability [9]: no radioactive by-product formation
